Source: US9463174B2, “Pharmaceutical composition for the treatment of type-1 diabetes” (priority 2008, dated 2016)
“Also recorded” adds a separate entry of the source.

How the values were obtained:
NOD mice = assay: Prevention of diabetes in non-obese diabetic (NOD) mice, GABA daily injections from age of 5 week; type: in vivo
Method: To examine the role of GABA in the development of diabetes in NOD mice, GABA daily injections were started at age of 5 week and PBS injections as control. Islet immunohistochemistry was performed at their age of 13 wks before the onset of obvious diabetic hyperglucemia. […] It is noted that beyond this age, the blood glucose levels of saline-treated NOD mice were out of the scale of the measurement (red arrows FIG. 6F). These non-treated NOD mice also developed impaired glucose tolerance (FIG. 6F, 6G), associated with reduced circulating C-peptide (FIG. 6H) and elevated circulating glucagon levels (FIG. 6I).
(§1) The techniques used for the in vivo and in vitro studies in this embodiment of the disclosure are also described. CD1 mice (Charles River Laboratories, St Constant, Canada), NOD mice and transgenic TCR NOD mice (Jackson Laboratory, USA) were housed under a controlled temperature and a 12-h light/12-h dark cycle in the St. Michael's Hospital Animal facility with free access to food (normal rodent chow) and water, except where noted. All procedures were conducted according to protocols and guidelines approved by the Canadian Council of Animal Care and the St. Michael's Hospital Animal Care committee. Mice were treated with GABA by daily intraperitoneal (i.p.) injection of 20·g GABA per mouse to reach ˜200 μM circulation concentration and PBS as control. The daily treatment is continuously conducted during 60-day experimental period. One wk after the GABA and PBS treatment, diabetes was induced in both groups by i.p.-injection of low-dose streptozotocin (STZ, Sigma Chemical Co., St. Louis, Mo. 40 mg/kg body weight) for 5 consecutive days. The development of hyperglycemia was monitored by measuring blood glucose from the tail vein every third day following STZ injections using an Ascensia ELITE® XL glucose meter. For some studies, overtly diabetic mice induced by STZ and without GABA treatment were divided into two groups: one group started receiving daily i.p. injection of 20·g GABA whereas other group received only PBS. The treatment was continued for 75 days. The handling of the NOD mice were similar to those CD1 mice except the STZ injection. The NOD mice have a susceptibility to spontaneous development of autoimmune T1D. The TCR transgenic 8.3-NOD mice have a markedly accelerated disease (J. Vergdaguer et al, 1997 J Exp Med. 186(10):1663-76).
(§2) Groups of mice were subject to a glucose tolerance test (IPGTT) before treatment (day 0), one, three, and five weeks after administration and the day prior termination. For IPGTT, mice were fasted overnight for 15 h, and were given 1.5 g glucose/kg body weight via i.p.-injection. Blood was drawn from the tail vein and blood glucose was measured at 0, 10, 20, 30, 60, 90, and 120 min after glucose administration.
Blood samples (200 μL) were collected from the saphenous vein at time as indicated and at the termination of experiments via cardiac puncture (1 mL) for measurement of insulin, glucagon, and cytokine profiles. Serum was collected by centrifugation and stored at −80° C. until use. Insulin and glucagon concentration in serum samples were determined using insulin ELISA kit (Crystal Chem., Chicago, Ill., USA) and glucagon RIA kit (Linco Research, St. Louis, Miss., USA). Circulating GLP-1 levels were determined using GLP-1 RIA kit (Linco Research, St. Louis, Miss., USA). Cytokine concentration in the serum samples was determined using kit Multiplex Bead-based Cytokine assay (BioRed, Canada).
Following dewaxing, […] as described previously (Wang Q, Brubaker P L 2002 Diabetologia 45:1263-1273), endogenous peroxidase activity was quenched by incubating sections in 0.3% H2O2 in water for 30 min and antigen retrieval was performed by heating slides in 10 mM sodium citrate buffer, pH 6.0, at ˜70° C. for 30 min. […]

MLDS CD1 mice = assay: Prevention of multiple-low-dose-streptozotocin (MLDS) induced diabetes by daily GABA injection; type: in vivo
Method: As shown in the FIG. 1, the diabetes induction by multiple-low-dose-streptozotocin (i.p. 40 mg/kg for four consecutive days, MLDS) in mice can be prevented by daily injection of GABA. The MLSD murine model is commonly used for study of T1D (Rossini A A et al, 1978 Nature. 276(5684):182-4; Harlan D M et al, 1995 Diabetes 44(7):816-23) in which the beta-cells are destroyed by the toxic streptozotocin that leads to insulin insufficiency. To certain extent, T-cell mediated beta-cell inflammation (insulitis) is found in the multiple-low-dose streptozotocin induced diabetic hyperglycemia. However, insulitis may not be necessary occurred in the hyperglycemic mice induced by one injection of streptozotocin of high dose (i.e. 200-250 mg/kg), as in the latter case the beta-cell are rapidly destroyed. […] GABA has no effect on the glucose tolerance in normal mice as determined by intraperitoneal glucose tolerance test (IPGTT) 7 days before STZ injection.
as §1, §2
Insulin tolerance test (ITT) was performed in non-fasting mice by i.p.-injection of 2.5 unit insulin/kg body weight. Blood was drawn from the tail vein and blood glucose levels were measured at 0, 20, 30, 40, 60, 90, and 120 min after insulin administration. Glucagon tolerance test (GTT) was performed in 15 hrs fasted mice: glucagon were i.p.-injected (50 ng/g body weight) and blood was drawn from the tail vein and blood glucose levels were measured at 0, 10, 20, 30, 60, 90, and 120 min after glucagon administration.
Mice were housed in metabolic cages prior to initiation of GABA and PBS treatment and before termination of experiments. Food intake, water consumption and urine output were measured. To determine the fat distribution, three intra-abdominal fat pads retroperitoneal, mesenteric and epididymal were dissected and weighed. […]

[1] = age of 13 wks, GABA-treated NOD mice
[2] = GABA treated vs non-treated MLDS-mice
[3] = GABA treated vs untreated MLDS-mice
[4] = GABA vs non-GABA treated MLDS-mice
[5] = pancreatic immunohistochemistry, vs non-treated MLDS-mice

NCCCC(=O)O [GABA, gamma-aminobutyric acid]
beta-cell apoptosis (anti-caspase-3 islet histochemistry) (NOD mice; GABA-treated NOD mice): reduced | circulating C-peptide (NOD mice; GABA-treated NOD mice): close to those measured at their earlier age; also recorded: significantly increased circulating C-peptide | circulating glucagon levels (NOD mice; GABA-treated NOD mice): close to those measured at their earlier age; also recorded: reduced glucagon levels | glucose tolerance (NOD mice; GABA-treated NOD mice): close to normal glucose tolerance | ratio of insulin to glucagon (NOD mice; GABA-treated NOD mice): significantly elevated the ratio of insulin to glucagon | onset of diabetes / development of severe diabetic hyperglycemia (NOD mice; NOD mice): significantly prevented development of severe diabetic hyperglycemia; also recorded: prevents onset of diabetes | severe insulitis (NOD mice; age of 13 wks): no severe insulitis was seen | islets areas occupied by lymphocytes in islets with relatively severe insulitis (NOD mice; [1]): 20-30% | islets with normal morphology without lymphocyte infiltration (NOD mice; [1]): > 70% | islets with relatively severe insulitis (NOD mice; [1]): about 15% | blood glucose levels (NOD mice; at 18 wks of age, vs saline-treated NOD mice): kept lower blood glucose levels | glucose tolerance in normal mice (IPGTT) (MLDS CD1 mice; 7 days before STZ injection): no effect | glucose tolerance (IPGTT) (MLDS CD1 mice; [2]): significant improved glucose tolerance; also recorded: maintained close to normal glucose tolerance | glucose tolerance, area under curve (MLDS CD1 mice; [2]): significantly improved | circulating insulin (MLDS CD1 mice; [3]): significantly elevated circulating insulin levels | ratio of insulin to glucagon levels (MLDS CD1 mice; [3]): increased ratio of insulin to glucagon levels; also recorded: significantly increased insulin/glucagon ratio | serum glucagon levels (MLDS CD1 mice; [3]): reduced serum glucagon levels; also recorded: significantly reduced glucagon levels | circulating IL-12 (MLDS CD1 mice; [4]): significantly reduced | circulating INF-gamma (MLDS CD1 mice; [4]): significantly reduced | circulating level of TNF-alpha (MLDS CD1 mice; [4]): significantly decreased | circulating level of pro-inflammatory IL-1 (IL-1-beta) (MLDS CD1 mice; [4]): significantly decreased | serum level of IL-6 (MLDS CD1 mice; [4]): not different | serum level of Th2 cytokine IL-10 (MLDS CD1 mice; [4]): not different | diabetic symptoms such as polydipsia and polyuria (MLDS CD1 mice; MLDS mice, metabolic studies): significantly improved diabetic symptoms | diabetic sickness (MLDS CD1 mice; MLDS mice, throughout the feeding course): not found in any mouse | glucagon tolerance (glucagon tolerance test) (MLDS CD1 mice; MLDS-mice): significantly improved glucagon tolerance; also recorded: largely improved | improvement of glucagon intolerance, area under curve (MLDS CD1 mice; MLDS-mice): statistically significant | insulin sensitivity (insulin tolerance test) (MLDS CD1 mice; MLDS-mice): does not alter the insulin sensitivity; also recorded: did not alter the insulin sensitivity | insulitis scored by HE staining for infiltrated lymphocytes in the islets (MLDS CD1 mice; MLDS-mice): significant reduction of insulitis | number of GABA treated STZ mice that developed overt hyperglycemia (MLDS CD1 mice; after 7-day MLDS injection, control mice 8 of total 8): one | development of diabetic hyperglycemia (blood glucose) (MLDS CD1 mice; daily i.p. GABA 20·g/mouse, MLDS CD1 mice, vs untreated): prevents development of diabetic hyperglycemia; also recorded: remarkably prevented development of hyperglycemia | alpha-cell mass (MLDS CD1 mice; [5]): significantly reduced alpha-cell mass | beta-cell mass (MLDS CD1 mice; [5]): significantly reserved the beta-cell mass
